Measurements from patent US9833497B2, “Human originated EGF domain proteins and use of the same” (CHENGDU SOURCEBIO LIMITED-LIABILITY COMPANY, priority 2013, dated 2017).

Tests used:
Type in all cases: cell-based
E. coli DH5α = assay: Antibacterial activity: MIC and growth curve against E. coli DH5α in 96-well plate; details: minimal inhibitory concentration against E. coli DH5α; 96-well plate, 5×10^5 CFU/mL, 37° C., judged after 8 h
Procedure, shortened: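 Log-phase DH5α (OD600 about 0.5, 37° C, 185 rpm in LB) was pelleted, resuspended in fresh LB and seeded at 5×10^5 CFU/mL with recombinant protein at 50, 25 and 12.5 μg/mL (two-fold series), in triplicate. Plates were shaken at 175 rpm, 37° C, and OD600 was read every 30 min. MIC was the lowest concentration with no growth.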

E. coli BL21 = assay: MIC against Gram-negative bacteria: E. coli BL21
Procedure, shortened: (§1)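 First, colonies from LB agar were grown in LB at 37° C, 185 rpm, to McFarland turbidity 0.5, then centrifuged and resuspended in fresh LB. Next, wells received 5×10^5 CFU/mL bacteria plus two-fold serially diluted EGF domain protein (triplicate). Finally, plates were shaken at 37° C and the no-growth concentration taken as MIC.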

Pseudomonas aeruginosa = assay: MIC against Gram-negative bacteria: Pseudomonas aeruginosa
Procedure, shortened: as §1

Klebsiella pneumonia = assay: MIC against Gram-negative bacteria: Klebsiella pneumonia
Procedure, shortened: as §1

Enterobacter cloacae = assay: MIC against Gram-negative bacteria: Enterobacter cloacae
Procedure, shortened: as §1

Aeromonas hydrophila = assay: MIC against Gram-negative bacteria: Aeromonas hydrophila
Procedure, shortened: as §1

Citrobacter diversus = assay: MIC against Gram-negative bacteria: Citrobacter diversus
Procedure, shortened: as §1

Moraxella catarrhalis = assay: MIC against Gram-negative bacteria: Moraxella catarrhalis
Procedure, shortened: as §1

Proteus mirabilis = assay: MIC against Gram-negative bacteria: Proteus mirabilis
Procedure, shortened: as §1

Proteus vulgaris = assay: MIC against Gram-negative bacteria: Proteus vulgaris
Procedure, shortened: as §1

Serratia marcescens = assay: MIC against Gram-negative bacteria: Serratia marcescens
Procedure, shortened: as §1

[1] = E. coli BL21, 5×10^5 CFU/mL, 10 h cultivation at 37° C.
[2] = Pseudomonas aeruginosa, 5×10^5 CFU/mL, 10 h cultivation at 37° C.
[3] = Klebsiella pneumonia, 5×10^5 CFU/mL, 10 h cultivation at 37° C.
[4] = Enterobacter cloacae, 5×10^5 CFU/mL, 10 h cultivation at 37° C.
[5] = Aeromonas hydrophila, 5×10^5 CFU/mL, 10 h cultivation at 37° C.
[6] = Citrobacter diversus, 5×10^5 CFU/mL, 10 h cultivation at 37° C.
[7] = Moraxella catarrhalis, 5×10^5 CFU/mL, 10 h cultivation at 37° C.
[8] = Proteus mirabilis, 5×10^5 CFU/mL, 10 h cultivation at 37° C.
[9] = Proteus vulgaris, 5×10^5 CFU/mL, 10 h cultivation at 37° C.
[10] = Serratia marcescens, 5×10^5 CFU/mL, 10 h cultivation at 37° C.
[11] = 96-well plate, 5×10^5 CFU/mL, 37° C., 10 h
[12] = 10 h cultivation at 37° C., 5×10^5 CFU/mL, two-fold serial dilution

PRT1450 (VPSNCDCLNGGTCVSNKYFSNIHWCNCPKKFGGQHCE; listed as Homo sapiens)
MIC (E. coli DH5α): 12.5 µg/mL | MIC against E. coli BL21 (E. coli BL21; [1]): 25 µg/mL | MIC against P. aeruginosa (Pseudomonas aeruginosa; [2]): 50 µg/mL | MIC against K. pneumonia (Klebsiella pneumonia; [3]): 12.5 µg/mL | MIC against E. cloacae (Enterobacter cloacae; [4]): 25 µg/mL | MIC against A. hydrophila (Aeromonas hydrophila; [5]): 50 µg/mL | MIC against C. diversus (Citrobacter diversus; [6]): 25 µg/mL | MIC against M. catarrhalis (Moraxella catarrhalis; [7]): 12.5 µg/mL | MIC against P. mirabilis (Proteus mirabilis; [8]): 25 µg/mL | MIC against P. vulgaris (Proteus vulgaris; [9]): 12.5 µg/mL | MIC against S. marcescens (Serratia marcescens; [10]): 25 µg/mL

PRT484 (RCEDLDGVVCGGHGTCSCGRCVCERGWFGKLCQ; listed as Homo sapiens)
MIC (E. coli DH5α): 25 µg/mL | MIC against E. coli BL21 (E. coli BL21; [11]): 12.5 µg/mL | MIC against P. aeruginosa (Pseudomonas aeruginosa; [11]): 25 µg/mL | MIC against K. pneumonia (Klebsiella pneumonia; [11]): 50 µg/mL | MIC against E. cloacae (Enterobacter cloacae; [11]): 12.5 µg/mL | MIC against A. hydrophila (Aeromonas hydrophila; [11]): 50 µg/mL | MIC against C. diversus (Citrobacter diversus; [11]): 12.5 µg/mL | MIC against M. catarrhalis (Moraxella catarrhalis; [11]): 50 µg/mL | MIC against P. mirabilis (Proteus mirabilis; [11]): 12.5 µg/mL | MIC against P. vulgaris (Proteus vulgaris; [11]): 50 µg/mL | MIC against S. marcescens (Serratia marcescens; [11]): 12.5 µg/mL

PRT716 (TEYTCEDNVNPCGDDAYCNQIKTSVFCRCKPGFQRNMKNRQCE; listed as Homo sapiens)
MIC (E. coli DH5α): 25 µg/mL | MIC E. coli BL21 (E. coli BL21; [11]): 50 µg/mL | MIC P. aeruginosa (Pseudomonas aeruginosa; [11]): 25 µg/mL | MIC K. pneumonia (Klebsiella pneumonia; [11]): 12.5 µg/mL | MIC E. cloacae (Enterobacter cloacae; [11]): 25 µg/mL | MIC A. hydrophila (Aeromonas hydrophila; [11]): 50 µg/mL | MIC C. diversus (Citrobacter diversus; [11]): 25 µg/mL | MIC M. catarrhalis (Moraxella catarrhalis; [11]): 12.5 µg/mL | MIC P. mirabilis (Proteus mirabilis; [11]): 25 µg/mL | MIC P. vulgaris (Proteus vulgaris; [11]): 50 µg/mL | MIC S. marcescens (Serratia marcescens; [11]): 12.5 µg/mL

PRT1292 (NVDDCEDNDCENNSTCVDGINNYTCLCPPEYTGELCE; listed as Homo sapiens)
MIC (E. coli DH5α): 12.5 µg/mL | MIC against E. coli BL21 (E. coli BL21; E. coli BL21, 96-well plate, 5×10^5 CFU/mL, 37° C., 10 h): 12.5 µg/mL | MIC against P. aeruginosa (Pseudomonas aeruginosa; Pseudomonas aeruginosa, 96-well plate, 5×10^5 CFU/mL, 37° C., 10 h): 12.5 µg/mL | MIC against K. pneumonia (Klebsiella pneumonia; Klebsiella pneumonia, 96-well plate, 5×10^5 CFU/mL, 37° C., 10 h): 12.5 µg/mL | MIC against E. cloacae (Enterobacter cloacae; Enterobacter cloacae, 96-well plate, 5×10^5 CFU/mL, 37° C., 10 h): 50 µg/mL | MIC against A. hydrophila (Aeromonas hydrophila; Aeromonas hydrophila, 96-well plate, 5×10^5 CFU/mL, 37° C., 10 h): 25 µg/mL | MIC against C. diversus (Citrobacter diversus; Citrobacter diversus, 96-well plate, 5×10^5 CFU/mL, 37° C., 10 h): 12.5 µg/mL | MIC against M. catarrhalis (Moraxella catarrhalis; Moraxella catarrhalis, 96-well plate, 5×10^5 CFU/mL, 37° C., 10 h): 50 µg/mL | MIC against P. mirabilis (Proteus mirabilis; Proteus mirabilis, 96-well plate, 5×10^5 CFU/mL, 37° C., 10 h): 12.5 µg/mL | MIC against P. vulgaris (Proteus vulgaris; Proteus vulgaris, 96-well plate, 5×10^5 CFU/mL, 37° C., 10 h): 50 µg/mL | MIC against S. marcescens (Serratia marcescens; Serratia marcescens, 96-well plate, 5×10^5 CFU/mL, 37° C., 10 h): 12.5 µg/mL

PRT1368 (EKRCPGDCSGHGFCDTGECYCEEGFTGLDCA; listed as Homo sapiens)
MIC (E. coli DH5α): 12.5 µg/mL | MIC against E. coli BL21 (E. coli BL21; [1]): 25 µg/mL | MIC against P. aeruginosa (Pseudomonas aeruginosa; [2]): 12.5 µg/mL | MIC against K. pneumonia (Klebsiella pneumonia; [3]): 25 µg/mL | MIC against E. cloacae (Enterobacter cloacae; [4]): 12.5 µg/mL | MIC against A. hydrophila (Aeromonas hydrophila; [5]): 25 µg/mL | MIC against C. diversus (Citrobacter diversus; [6]): 12.5 µg/mL | MIC against M. catarrhalis (Moraxella catarrhalis; [7]): 12.5 µg/mL | MIC against P. mirabilis (Proteus mirabilis; [8]): 12.5 µg/mL | MIC against P. vulgaris (Proteus vulgaris; [9]): 12.5 µg/mL | MIC against S. marcescens (Serratia marcescens; [10]): 12.5 µg/mL

PRT689 (DNDECADEEPACEGGRCVNTVGSYHCTCEPPLVLDGSQRRCV; listed as Homo sapiens)
MIC (E. coli DH5α): 100 µg/mL | MIC E. coli BL21 (E. coli BL21; [11]): 25 µg/mL | MIC P. aeruginosa (Pseudomonas aeruginosa; [11]): 50 µg/mL | MIC K. pneumonia (Klebsiella pneumonia; [11]): 12.5 µg/mL | MIC E. cloacae (Enterobacter cloacae; [11]): 25 µg/mL | MIC A. hydrophila (Aeromonas hydrophila; [11]): 50 µg/mL | MIC C. diversus (Citrobacter diversus; [11]): 12.5 µg/mL | MIC M. catarrhalis (Moraxella catarrhalis; [11]): 50 µg/mL | MIC P. mirabilis (Proteus mirabilis; [11]): 25 µg/mL | MIC P. vulgaris (Proteus vulgaris; [11]): 12.5 µg/mL | MIC S. marcescens (Serratia marcescens; [11]): 25 µg/mL

PRT1177 (DANECEAKPCVNAKSCKNLIASYYCDCLPGWMGQNCD; listed as Homo sapiens)
MIC (E. coli DH5α): 50 µg/mL | MIC E. coli BL21 (E. coli BL21; [12]): 12.5 µg/mL | MIC P. aeruginosa (Pseudomonas aeruginosa; [12]): 50 µg/mL | MIC K. pneumonia (Klebsiella pneumonia; [12]): 12.5 µg/mL | MIC E. cloacae (Enterobacter cloacae; [12]): 50 µg/mL | MIC A. hydrophila (Aeromonas hydrophila; [12]): 12.5 µg/mL | MIC C. diversus (Citrobacter diversus; [12]): 50 µg/mL | MIC M. catarrhalis (Moraxella catarrhalis; [12]): 12.5 µg/mL | MIC P. mirabilis (Proteus mirabilis; [12]): 50 µg/mL | MIC P. vulgaris (Proteus vulgaris; [12]): 12.5 µg/mL | MIC S. marcescens (Serratia marcescens; [12]): 25 µg/mL

PRT612 (CPCPGGSSCAVVPKTKEVVCTNCPTGTTGKRCELCDDGYFGDPLGRNGPVRLCRL; listed as Homo sapiens)
MIC (E. coli DH5α): 25 µg/mL | MIC E. coli BL21 (E. coli BL21; [11]): 12.5 µg/mL | MIC P. aeruginosa (Pseudomonas aeruginosa; [11]): 25 µg/mL | MIC K. pneumonia (Klebsiella pneumonia; [11]): 50 µg/mL | MIC E. cloacae (Enterobacter cloacae; [11]): 25 µg/mL | MIC A. hydrophila (Aeromonas hydrophila; [11]): 12.5 µg/mL | MIC C. diversus (Citrobacter diversus; [11]): 25 µg/mL | MIC M. catarrhalis (Moraxella catarrhalis; [11]): 50 µg/mL | MIC P. mirabilis (Proteus mirabilis; [11]): 25 µg/mL | MIC P. vulgaris (Proteus vulgaris; [11]): 12.5 µg/mL | MIC S. marcescens (Serratia marcescens; [11]): 25 µg/mL

PRT163 (EYNECLSAPCLNAATCRDLVNGYECVCLAEYKGTHCE; listed as Homo sapiens)
MIC (E. coli DH5α): 12.5 µg/mL | MIC (μg/mL) E. coli BL21 (E. coli BL21; E. coli BL21, 10 h cultivation at 37° C., 5×10^5 CFU/mL): 25 µg/mL | MIC (μg/mL) P. aeruginosa (Pseudomonas aeruginosa; P. aeruginosa, 10 h cultivation at 37° C., 5×10^5 CFU/mL): 12.5 µg/mL | MIC (μg/mL) K. pneumonia (Klebsiella pneumonia; K. pneumonia, 10 h cultivation at 37° C., 5×10^5 CFU/mL): 25 µg/mL | MIC (μg/mL) E. cloacae (Enterobacter cloacae; E. cloacae, 10 h cultivation at 37° C., 5×10^5 CFU/mL): 12.5 µg/mL | MIC (μg/mL) A. hydrophila (Aeromonas hydrophila; A. hydrophila, 10 h cultivation at 37° C., 5×10^5 CFU/mL): 25 µg/mL | MIC (μg/mL) C. diversus (Citrobacter diversus; C. diversus, 10 h cultivation at 37° C., 5×10^5 CFU/mL): 12.5 µg/mL | MIC (μg/mL) M. catarrhalis (Moraxella catarrhalis; M. catarrhalis, 10 h cultivation at 37° C., 5×10^5 CFU/mL): 25 µg/mL | MIC (μg/mL) P. mirabilis (Proteus mirabilis; P. mirabilis, 10 h cultivation at 37° C., 5×10^5 CFU/mL): 50 µg/mL | MIC (μg/mL) P. vulgaris (Proteus vulgaris; P. vulgaris, 10 h cultivation at 37° C., 5×10^5 CFU/mL): 25 µg/mL | MIC (μg/mL) S. marcescens (Serratia marcescens; S. marcescens, 10 h cultivation at 37° C., 5×10^5 CFU/mL): 12.5 µg/mL

PRT897 (DPNPCLSTPCKNAGTCHVVDRRGVADYACSCALGFSGPLCL; listed as Homo sapiens)
MIC (E. coli DH5α): 50 µg/mL | MIC (E. coli BL21; E. coli BL21, 10 h cultivation at 37° C.): 25 µg/mL | MIC (Pseudomonas aeruginosa; P. aeruginosa, 10 h cultivation at 37° C.): 12.5 µg/mL | MIC (Klebsiella pneumonia; K. pneumonia, 10 h cultivation at 37° C.): 50 µg/mL | MIC (Enterobacter cloacae; E. cloacae, 10 h cultivation at 37° C.): 12.5 µg/mL | MIC (Aeromonas hydrophila; A. hydrophila, 10 h cultivation at 37° C.): 50 µg/mL | MIC (Citrobacter diversus; C. diversus, 10 h cultivation at 37° C.): 12.5 µg/mL | MIC (Moraxella catarrhalis; M. catarrhalis, 10 h cultivation at 37° C.): 50 µg/mL | MIC (Proteus mirabilis; P. mirabilis, 10 h cultivation at 37° C.): 25 µg/mL | MIC (Proteus vulgaris; P. vulgaris, 10 h cultivation at 37° C.): 12.5 µg/mL | MIC (Serratia marcescens; S. marcescens, 10 h cultivation at 37° C.): 25 µg/mL
